Read-outs that look alike come from different tables or passages of the source.
Experiments:
[1] = logP (acidic, pH 2.3, and neutral); assay type: physicochemical; details: for logP: read-out: logP neutr.
Puccinia recondita = assay: Puccinia test (wheat) / protective; assay type: in vivo; details: 240 h, 1000 ppm active ingredient, protective spray, evaluated 10 days after inoculation, 0 % = control, 100 % = no infestation, read-out: Wirkungsgrad
Text: (§1) Zur Herstellung einer zweckmäßigen Wirkstoffzubereitung vermischt man 1 Gewichtsteil Wirkstoff mit den angegebenen Mengen Lösungsmittel und Emulgator und verdünnt das Konzentrat mit Wasser auf die gewünschte Konzentration.
Zur Prüfung auf protektive Wirksamkeit werden junge Pflanzen mit der Wirkstoffzubereitung in der angegebenen Aufwandmenge besprüht. Nach Antrocknen des Spritzbelages werden die Pflanzen mit einer Konidiensuspension von Puccinia recondita besprüht. Die Pflanzen verbleiben 48 Stunden bei 20°C und 100 % relativer Luftfeuchtigkeit in einer Inkubationskabine.
Die Pflanzen werden dann in einem Gewächshaus bei einer Temperatur von ca. 20°C und einer relativen Luftfeuchtigkeit von 80 % aufgestellt, um die Entwicklung von Rostpusteln zu begünstigen.
10 Tage nach der Inokulation erfolgt die Auswertung. Dabei bedeutet 0 % ein Wirkungsgrad, der demjenigen der Kontrolle entspricht, während ein Wirkungsgrad von 100 % bedeutet, daß kein Befall beobachtet wird.

Sphaerotheca fuliginea = assay: Sphaerotheca test (cucumber) / protective; assay type: in vivo; details: Podosphaera fuliginea, 168 h, 100ppm active ingredient, evaluated 7 days after inoculation, 0 % = control, 100 % = no infestation, read-out: Wirkungsgrad
Text: as §1
Zur Prüfung auf protektive Wirksamkeit werden junge Pflanzen mit der Wirkstoffzubereitung in der angegebenen Aufwandmenge besprüht. Nach Antrocknen des Spritzbelages werden die Pflanzen mit einer wäßrigen Sporensuspension von Sphaerotheca fuliginea inokuliert. Die Pflanzen werden dann bei ca. 23°C und einer relativen Luftfeuchtigkeit von ca. 70% im Gewächshaus aufgestellt.
7 Tage nach der Inokulation erfolgt die Auswertung. Dabei bedeutet 0% ein Wirkungsgrad, der demjenigen der Kontrolle entspricht, während ein Wirkungsgrad von 100% bedeutet, daß kein Befall beobachtet wird.

[2] = test system: Erysiphe graminis f. sp. hordei; assay: Erysiphe test (barley) / protective; assay type: in vivo; details: Blumeria graminis, 168 h, 500 ppm active ingredient, evaluated 7 days after inoculation, 0 % = control, 100 % = no infestation, read-out: Wirkungsgrad
Text: as §1
Zur Prüfung auf protektive Wirksamkeit bespritzt man junge Getreidepflanzen mit der Wirkstoffzubereitung in der angegebenen Aufwandmenge. 1 Tag nach der Behandlung werden die Pflanzen mit Sporen von Erysiphe graminis f. sp. hordei inokuliert. Anschließend werden die Pflanzen in einem Gewächshaus bei 70 % relativer Luftfeuchtigkeit und einer Temperatur von 18°C aufgestellt.
7 Tage nach der Inokulation erfolgt die Auswertung. Dabei bedeutet 0 % ein Wirkungsgrad, der demjenigen der Kontrolle entspricht, während ein Wirkungsgrad von 100 % bedeutet, daß kein Befall beobachtet wird.

Podosphaera leucotricha = assay: Podosphaera test (apple) / protective; assay type: in vivo; details: 240 h, 100 ppm active ingredient, evaluated 10 days after inoculation, 0 % = control, 100 % = no infestation, read-out: Wirkungsgrad
Text: as §1
Zur Prüfung auf protektive Wirksamkeit werden junge Pflanzen mit der Wirkstoffzubereitung in der angegebenen Aufwandmenge besprüht. Nach Antrocknen des Spritzbelages werden die Pflanzen mit einer wäßrigen Sporensuspension des Apfelmehltauerregers Podosphaera leucotricha inokuliert. Die Pflanzen werden dann im Gewächshaus bei ca. 23°C und einer relativen Luftfeuchtigkeit von ca. 70% aufgestellt.
(§2) 10 Tage nach der Inokulation erfolgt die Auswertung. Dabei bedeutet 0% ein Wirkungsgrad, der demjenigen der Kontrolle entspricht, während ein Wirkungsgrad von 100% bedeutet, daß kein Befall beobachtet wird.

Uromyces appendiculatus = assay: Uromyces test (bean) / protective; assay type: in vivo; details: 10ppm active ingredient, evaluated 10 days after inoculation, 0 % = control, 100 % = no infestation
Text: as §1
Zur Prüfung auf protektive Wirksamkeit werden junge Pflanzen mit der Wirkstoffzubereitung in der angegebenen Aufwandmenge besprüht. Nach Antrocknen des Spritzbelages werden die Pflanzen mit einer wäßrigen Sporensuspension des Bohnenrosterregers Uromyces appendiculatus inokuliert und verbleiben dann 1 Tag bei ca. 20°C und 100% relativer Luftfeuchtigkeit in einer Inkubations-kabine.
Die Pflanzen werden dann im Gewächshaus bei ca. 21°C und einer relativen Luftfeuchtigkeit von ca. 90% aufgestellt.
as §2

Leptosphaeria nodorum = Leptosphaeria nodorum test (wheat) / protective; assay type: in vivo; details: 500 ppm active ingredient, evaluated 12-14 days after inoculation, 0 % = control, 100 % = no infestation
Text: as §1
Zur Prüfung auf protektive Wirksamkeit bespritzt man junge Weizenpflanzen mit der Wirkstoffzubereitung in der angegebenen Aufwandmenge. 1 Tag nach der Behandlung werden die Pflanzen mit einer wäßrigen Sporensuspension von Leptosphaeria nodorum inokuliert und verbleiben dann 48h bei 100% rel. Luftfeuchte und 20°C. Anschließend werden die Pflanzen in einem Gewächshaus bei 80 % rel. Luftfeuchtigkeit und einer Temperatur von 22°C aufgestellt.
12-14 Tage nach der Inokulation erfolgt die Auswertung. Dabei bedeutet 0 % ein Wirkungsgrad, der demjenigen der Kontrolle entspricht, während ein Wirkungsgrad von 100 % bedeutet, dass kein Befall beobachtet wird.

[3] = pH 2, pH 2,3, read-out: log P (pH 2,3)
[4] = pH 2.3, acidic, read-out: logP sauer

SMILES	logP ([1]; neutral)	logD [1, 4]	pest or weed control at 1000 ppm (Puccinia recondita)	pest or weed control at 500 ppm [2]	also measured
Cc1cc(Oc2ccc(Cl)c(Cl)c2)c(C)cc1N [4-(3,4-Dichlorphenoxy)-2,5-dimethylanilin]	–	–	–	–	logD [1, 3]: 3.51
Cc1cc([N+](=O)[O-])c(C)cc1Oc1ccc(Cl)c(Cl)c1 [4-(3,4-Dichlorphenoxy)-2,5-dimethylnitrobenzol]	–	–	–	–	logD [1, 3]: 5.19
CCN(C)C=Nc1cc(C)c(Oc2ccc(F)c(F)c2)cc1C [Nr. 2]	6.2	2.37	–	–	–
CCN(C)C=Nc1cc(C)c(Oc2cc(Br)cc(Br)c2)cc1C [Nr. 4]	6	2.5	≥ 70%	≥ 70%	pest or weed control at 100 ppm (Sphaerotheca fuliginea): ≥ 70%; pest or weed control at 100 ppm (Podosphaera leucotricha): ≥ 70%
Cc1cc(Oc2cc(Br)cc(Br)c2)c(C)cc1N=CN(C)C(C)C [Nr. 5]	6.4	2.62	≥ 70%	≥ 70%	–
CCN(C)C=Nc1cc(C)c(Oc2cc(Cl)cc(Br)c2)cc1C [Nr. 6]	6.4	2.56	≥ 70%	≥ 70%	pest or weed control at 100 ppm (Sphaerotheca fuliginea): ≥ 70%; pest or weed control at 100 ppm (Podosphaera leucotricha): ≥ 70%
Cc1cc(Oc2cc(Cl)cc(Br)c2)c(C)cc1N=CN(C)C(C)C [Nr. 7]	6.8	2.7	≥ 70%	≥ 70%	pest or weed control at 100 ppm (Sphaerotheca fuliginea): ≥ 70%; pest or weed control at 100 ppm (Podosphaera leucotricha): ≥ 70%; Wirkungsgrad (Uromyces appendiculatus): ≥ 70%
CCN(C)C=Nc1cc(C)c(Oc2cc(F)cc(Cl)c2)cc1C [Nr. 8]	5.6	2.21	≥ 70%	≥ 70%	–
Cc1cc(Oc2cc(F)cc(Cl)c2)c(C)cc1N=CN1CCCCC1 [Nr. 9]	6.3	2.42	≥ 70%	≥ 70%	pest or weed control at 100 ppm (Sphaerotheca fuliginea): ≥ 70%; pest or weed control at 100 ppm (Podosphaera leucotricha): ≥ 70%
Cc1cc(Oc2cc(F)cc(Cl)c2)c(C)cc1N=CN1CCCC1 [Nr. 10]	5.6	2.26	–	–	–
CCCN(C)C=Nc1cc(C)c(Oc2cc(F)cc(Cl)c2)cc1C [Nr. 11]	6.1	2.39	≥ 70%	≥ 70%	pest or weed control at 100 ppm (Sphaerotheca fuliginea): ≥ 70%; pest or weed control at 100 ppm (Podosphaera leucotricha): ≥ 70%
Cc1cc(Oc2cc(F)cc(Br)c2)c(C)cc1N=CN1CCCCC1 [Nr. 12]	6.5	2.55	≥ 70%	≥ 70%	–
Cc1cc(Oc2cc(F)cc(Br)c2)c(C)cc1N=CN1CCCC1 [Nr. 13]	5.7	2.37	≥ 70%	≥ 70%	–
CCCN(C)C=Nc1cc(C)c(Oc2cc(F)cc(Br)c2)cc1C [Nr. 14]	7.4	2.37	≥ 70%	≥ 70%	–
CCN(C)C=Nc1cc(C)c(Oc2ccc(Cl)c(Br)c2)cc1C [Nr. 15]	6.1	2.23	≥ 70%	–	Wirkungsgrad (Leptosphaeria nodorum): ≥ 70%
Cc1cc(Oc2ccc(Cl)c(Br)c2)c(C)cc1N=CN1CCCCC1 [Nr. 16]	6.9	2.66	≥ 70%	–	–
CCCN(C)C=Nc1cc(C)c(Oc2ccc(Cl)c(Br)c2)cc1C [Nr. 17]	6.6	2.64	–	–	–
Cc1cc(Oc2ccc(Cl)c(Br)c2)c(C)cc1N=CN1CCCC1 [Nr. 18]	6.6	2.56	–	–	–
CCN(C)C=Nc1cc(C)c(Oc2cc(F)cc(I)c2)cc1C [Nr. 19]	–	2.4	≥ 70%	–	–
CCCN(C)C=Nc1cc(C)c(Oc2cc(F)cc(I)c2)cc1C [Nr. 20]	6.6	2.61	–	–	–
Cc1cc(Oc2cc(F)cc(I)c2)c(C)cc1N=CN1CCCCC1 [Nr. 21]	6.8	2.6	≥ 70%	–	Wirkungsgrad (Leptosphaeria nodorum): ≥ 70%
Cc1cc(Oc2cc(F)cc(I)c2)c(C)cc1N=CN1CCCC1 [Nr. 22]	6.6	2.46	–	–	–
CCN(C)C=Nc1cc(C)c(Oc2ccc(F)c(Br)c2)cc1C [Nr. 23]	5.7	2.29	≥ 70%	–	pest or weed control at 100 ppm (Sphaerotheca fuliginea): ≥ 70%; Wirkungsgrad (Uromyces appendiculatus): ≥ 70%
Cc1cc(Oc2ccc(Cl)c(I)c2)c(C)cc1N=CN(C)C(C)C [Nr. 24]	6.2	2.4	≥ 70%	–	pest or weed control at 100 ppm (Sphaerotheca fuliginea): ≥ 70%; Wirkungsgrad (Leptosphaeria nodorum): ≥ 70%; pest or weed control at 100 ppm (Podosphaera leucotricha): ≥ 70%; Wirkungsgrad (Uromyces appendiculatus): ≥ 70%
CCN(C)C=Nc1cc(C)c(Oc2ccc(Cl)c(I)c2)cc1C [Nr. 25]	–	2.29	≥ 70%	–	Wirkungsgrad (Leptosphaeria nodorum): ≥ 70%; pest or weed control at 100 ppm (Podosphaera leucotricha): ≥ 70%
Cc1cc(Oc2ccc(Cl)c(I)c2)c(C)cc1N=CN1CCCCC1 [Nr. 26]	–	2.52	–	–	Wirkungsgrad (Leptosphaeria nodorum): ≥ 70%
CCN(C)C=Nc1cc(C)c(Oc2ccc(Br)c(I)c2)cc1C [Nr. 27]	6.1	2.67	–	–	Wirkungsgrad (Leptosphaeria nodorum): ≥ 70%
CCCN(C)C=Nc1cc(C)c(Oc2cc(F)cc(Br)c2)cc1C [Nr. 28]	–	–	–	–	logP sauer ([1]; acidic): 2,91; logP neutr. ([1]; neutral): 6,9
Cc1cc(Oc2cc(F)cc(Br)c2)c(C)cc1N=CN1CC(C)OC(C)C1 (centres unmarked) [Nr. 29]	5.8	2.59	–	–	–
CCN(C)C=Nc1cc(C)c(Oc2ccc(Cl)c(Cl)c2)cc1C [Nr. 30, N-Ethyl-N-methyl-N'-[4-(3,4-dichlorphenoxy)-2,5-dimethylphenyl]formamidin]	–	–	–	–	logD [1, 3]: 2.48

— patent publication EP1969933A1, “Di-halogen phenoxy phenylamidines and their use as fungicides” (Bayer CropScience AG, priority 2007, dated 2008)
